target: streptavidin (Streptomyces avidinii, UniProt P22629); test: biochemical; format: binding; settings: not given
Procedure: (§1) LNA5 and LNA3 conjugates were hybridized by mixing 25 µL of LNA5 (2 µM) and 25 µL of LNA3 (2 µM) conjugates in water and heating to 70 °C for 5-10 min. After cooling down the solution to room temperature, 950 µL of 1x PBS was added to the LNA solution. The hybridized LNA conjugates were then tested via fluorescence polarization.
If the LNA conjugates were clicked together, they were diluted to 1 µM, 50 µL of a clicked conjugate was diluted with 950 µL 1x PBS and tested by fluorescence polarization.
(§2) Separately, a 16-point serial dilution of protein was performed in PBS in PCR tubes. 4 µL of the 50 nM conjugate was mixed with 4 µL of each protein dilution in black 384-well plates to a final volume of 8 µL. The plate was incubated for 30 min in the dark and centrifuged briefly to remove bubbles. Fluorescence anisotropy was measured at 535 nm. Data was fitted using Prism 10. Raw data from experimental FP measurements can be found in Supplementary Information, section 7.1.
7.1. Fluorescence Polarization
as §1, with “mQ” for “water”, “polarization experiment.” for “polarization.”
If the LNA conjugates were clicked together, they were diluted to 1 µM, 50 µL of a clicked conjugate could then be taken, diluted with 950 µL 1x PBS and tested via fluorescence […]
All other off-DNA fluoresceinated compounds were diluted to 50 nM in 1xPBS containing 5% […]
as §2, with “Data was obtained and fitted using” for “Data was fitted using”, “Prism 10.” for “Prism 10. Raw data from experimental FP measurements can be found in Supplementary Information, section 7.1.”

Sequence of streptavidin (P22629 25-183): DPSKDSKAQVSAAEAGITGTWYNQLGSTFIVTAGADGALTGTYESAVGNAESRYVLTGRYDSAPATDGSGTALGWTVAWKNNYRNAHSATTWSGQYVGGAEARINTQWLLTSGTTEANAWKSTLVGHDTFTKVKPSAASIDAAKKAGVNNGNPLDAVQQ

Structure (SMILES)	Kd
CC(C)C[C@@H]1C(=O)N2Cc3cc(sc3C2)C(=O)N[C@H](C(=O)NCCCCCC(=O)N[C@@H](CCCCNC(=O)c2ccc3c(c2)C(=O)OC32c3ccc(O)cc3Oc3cc(O)ccc32)C(N)=O)CSCCS(=O)(=O)CS(=O)(=O)CCSC[C@@H](C(N)=O)NC(=O)[C@@H](CC2CCCCC2)NC(=O)[C@@H]2CCCN2Cc2cn1nn2 [Compound 7-L1]	> 5 µM
CC(C)C[C@@H]1C(=O)N2Cc3cc(sc3C2)C(=O)N[C@H](C(=O)NCCCCCC(=O)N[C@@H](CCCCNC(=O)c2ccc3c(c2)C(=O)OC32c3ccc(O)cc3Oc3cc(O)ccc32)C(N)=O)CSC/C=C/CSC[C@@H](C(N)=O)NC(=O)[C@@H](CC2CCCCC2)NC(=O)[C@@H]2CCCN2Cc2cn1nn2 [Compound 7-L4]	> 5 µM
CC(C)C[C@@H]1C(=O)N2Cc3cc(sc3C2)C(=O)N[C@H](C(=O)NCCCCCC(=O)N[C@@H](CCCCNC(=O)c2ccc3c(c2)C(=O)OC32c3ccc(O)cc3Oc3cc(O)ccc32)C(N)=O)CSCc2cccc(c2)CSC[C@@H](C(N)=O)NC(=O)[C@@H](CC2CCCCC2)NC(=O)[C@@H]2CCCN2Cc2cn1nn2 [Compound 7-L3]	> 5 µM
CC(C)C[C@@H]1C(=O)N2Cc3cc(sc3C2)C(=O)N[C@H](C(=O)NCCCCCC(=O)N[C@@H](CCCCNC(=O)c2ccc3c(c2)C(=O)OC32c3ccc(O)cc3Oc3cc(O)ccc32)C(N)=O)CSCc2ccc(cc2)CSC[C@@H](C(N)=O)NC(=O)[C@@H](CC2CCCCC2)NC(=O)[C@@H]2CCCN2Cc2cn1nn2 [Compound 7-L2]	> 5 µM
CC(C)C[C@@H]1C(=O)N2Cc3cc(sc3C2)C(=O)N[C@H](C(=O)NCCCCCC(=O)N[C@@H](CCCCNC(=O)c2ccc3c(c2)C(=O)OC32c3ccc(O)cc3Oc3cc(O)ccc32)C(N)=O)CSC/C=C\CSC[C@@H](C(N)=O)NC(=O)[C@@H](CC2CCCCC2)NC(=O)[C@@H]2CCCN2Cc2cn1nn2 [Compound 7-L5]	> 5 µM
CC(C)C[C@H](C(=O)N1Cc2cc(C(=O)N[C@@H](CSCC(N)=O)C(=O)NCCCCCC(=O)N[C@@H](CCCCNC(=O)c3ccc4c(c3)C(=O)OC43c4ccc(O)cc4Oc4cc(O)ccc43)C(N)=O)sc2C1)n1cc(CN2CCC[C@H]2C(=O)N[C@H](CC2CCCCC2)C(=O)N[C@@H](CSCC(N)=O)C(N)=O)nn1 [Compound 7-L0]	0.173 µM
NC(=O)CSC[C@H](NC(=O)[C@@H](CC1CCCCC1)NC(=O)[C@@H]1CCCN1Cc1cn([C@H](CC2CCC2)C(=O)N2Cc3cc(C(=O)N[C@@H](CSCC(N)=O)C(=O)NCCCCCC(=O)N[C@@H](CCCCNC(=O)c4ccc5c(c4)C(=O)OC54c5ccc(O)cc5Oc5cc(O)ccc54)C(N)=O)sc3C2)nn1)C(N)=O [Compound 8-L0]	0.118 µM

target: T1, placental alkaline phosphatase (PLAP) (Homo sapiens, UniProt P05187); test: PLAP inhibition assay (pNPP substrate); format: biochemical; settings: off-DNA; pH 10 (activation buffer pH 9.8); read-out: IC50 (determined fit)
T1 construct: AviTag (biotinylated in vitro by BirA); 6xHis-tag; made in house; host or cells: Chinese hamster ovary (CHO) cells
Procedure: For the PLAP inhibition assay, 500 µM of inhibitor was used for a 16-point serial dilution in 10% DMSO/activation buffer in PCR tubes. Separately, a 12.5 nM solution of PLAP and a 4.5 mM solution of p-nitrophenylphosphate (pNPP) were prepared in activation buffer (see below). 8 µL of each inhibitor dilution was mixed with 16 µL of enzyme solution and 16 µL of pNPP solution and gently mixed. The assay was allowed to develop in the dark for 30 min (activation buffer pH10: 150 mM diethanolamine, 1 mM MgCl2, 60 mM ZnCl2 in water, pH 9.8) or 1 hour (activation buffer pH9: 150 mM Tris, 1 mM MgCl2, 60 mM ZnCl2 in water, pH 9.0). 50 µL of 2 M NaOH was then added to quench the reaction. Readout was performed to detect 405 nm vs 620 nm absorption. Data was fitted using Prism 10. Raw data from PLAP measurements can be found in Supplementary Information, section 7.2.2.
Human alpha-thrombin was obtained from Prolytix (Haematologic Technologies) - BioConnect Website and used in FP and inhibition assays. Biotinylated thrombin used for selections was obtained from Sigma Aldrich.
The recombinant human placental alkaline phosphatase (hPLAP) labelled with AviTag™ and 6xHis-tag was produced in Chinese hamster ovary (CHO) cells and was purified by Ni-NTA affinity chromatography and size-exclusion chromatography. The in-vitro biotinylation of the protein is mediated by BirA protein system. “Early-fraction” is the final material used for fluorescence polarization and inhibition experiments.
Figure S32: Quality characterization of recombinant hPLAP. A. The size exclusion chromatogram of purifying recombinant hPLAP expressed in CHO cells after Ni-NTA affinity chromatography purification and biotinylation. […] The absorbances at 450nm were measured with/without the presence of hPLAP and/or human PLAP antibody. […]
Protocol was adapted from Habeshian et al. 12. […] Fluorescence (excitation at 360 nm, emission at 465 nm) was measured every 3 min for 30 min. […] Data was measured in triplicate. […]
and gently mixed. […] Readout was performed to detect 405 nm vs 620 nm absorption. […]

T1 sequence (P05187 23-506 limits assumed): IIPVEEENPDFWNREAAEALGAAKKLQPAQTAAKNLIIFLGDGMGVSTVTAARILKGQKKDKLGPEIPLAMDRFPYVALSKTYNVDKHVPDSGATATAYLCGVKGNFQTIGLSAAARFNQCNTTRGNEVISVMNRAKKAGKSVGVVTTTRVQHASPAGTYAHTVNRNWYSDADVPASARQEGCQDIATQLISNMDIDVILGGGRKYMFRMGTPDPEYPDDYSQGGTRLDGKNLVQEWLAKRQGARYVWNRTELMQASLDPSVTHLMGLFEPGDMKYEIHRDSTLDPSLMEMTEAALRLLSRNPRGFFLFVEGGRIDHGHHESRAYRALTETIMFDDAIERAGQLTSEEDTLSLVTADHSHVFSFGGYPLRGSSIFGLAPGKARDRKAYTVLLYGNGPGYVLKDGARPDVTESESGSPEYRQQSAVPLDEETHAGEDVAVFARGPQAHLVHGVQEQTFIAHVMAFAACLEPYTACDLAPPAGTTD

Structure (SMILES)	IC50
NC(=O)CSC[C@H](NC(=O)C[C@H](Cc1ccccc1Cl)NC(=O)[C@@H](N)Cc1ccccc1Cl)C(=O)NCCCCCC(=O)N[C@@H](CCCCNC(=S)Nc1ccc2c(c1)C(=O)OC21c2ccc(O)cc2Oc2cc(O)ccc21)C(N)=O [Compound 21]	21 µM

same assay, conditions: off-DNA; pH not printed with the values, pH 9 implied by b30; mean of n=3; read-out: IC50

Structure (SMILES)	IC50
NC(=O)CSC[C@H](NC(=O)C[C@H](Cc1ccccc1Cl)NC(=O)[C@@H](N)Cc1ccccc1Cl)C(=O)NCCCCCC(=O)N[C@@H](CCCCNC(=S)Nc1ccc2c(c1)C(=O)OC21c2ccc(O)cc2Oc2cc(O)ccc21)C(N)=O [Compound 21]	2.5 µM
C#CCN1CCC[C@H]1C(=O)N[C@H](CC(=O)N[C@@H](CSC1CC(=O)N(CCN2C(=O)CC(SC[C@H](NC(=O)C[C@H](Cc3ccccc3Cl)NC(=O)[C@@H](N)Cc3ccccc3Cl)C(=O)NCCCCCC(=O)N[C@@H](CCCCNC(=S)Nc3ccc4c(c3)C(=O)OC43c4ccc(O)cc4Oc4cc(O)ccc43)C(N)=O)C2=O)C1=O)C(N)=O)Cc1ccccc1Cl (stereo partly shown) [Compound 22]	1.43 µM

Reference: paper PMC11972359, “Flexibility-tuning of dual-display DNA-encoded chemical libraries facilitates cyclic peptide ligand discovery” (Nature Communications, 2025)
